Active and inactive are the calls of the source. The rule behind the calls is not given here.
test system: SH-SY5Y; experiment: Neuroprotective activity in human SH-SY5Y cells assessed as reversal of 20 nM okadaic acid-induced cell death at 1 to 10 uM after 24 hrs by XTT assay; type: functional, cell-based; details: not given

Row | SMILES | Activity
1 | CCOC(=O)C1=C(C)Oc2nc3c(c(N)c2C1c1cc2cccc(OC)c2nc1Cl)CCCC3 (stereo not given) | Active
2 | COc1ccc2cc(C3C4=C(CC(C)(C)CC4=O)Oc4nc5c(c(N)c43)CCCC5)c(Cl)nc2c1 (stereo not given) | Active
3 | COc1ccc2cc(C3C4=C(CC(C)(C)CC4=O)Oc4nc5c(c(N)c43)CCCCC5)c(Cl)nc2c1 (stereo not given) | Active
4 | CCOC(=O)C1=C(C)Oc2nc3c(c(N)c2C1c1cc2ccc(OC)cc2nc1Cl)CCCC3 (stereo not given) | Active
5 | COC(=O)C1=C(C)Oc2nc3c(c(N)c2C1c1cc2ccc(OC)cc2nc1Cl)CCC3 (stereo not given) | Active
6 | CCOC(=O)C1=C(C)Oc2nc3c(c(N)c2C1c1cc2ccc(OC)cc2nc1Cl)CCCCC3 (stereo not given) | inactive

test system: SH-SY5Y; experiment: Neuroprotective activity in human SH-SY5Y cells assessed as reversal of 15 nM okadaic acid-induced cell death at 1 to 10 uM after 24 hrs by XTT assay; type: functional, cell-based; details: not given

Row | SMILES | Activity
7 | CCOC(=O)C1=C(C)Oc2nc3c(c(N)c2C1c1cc2cccc(OC)c2nc1Cl)CCCC3 (stereo not given) | Active

biological target: Cholinesterase (Equus caballus) (UniProt P81908); experiment: Inhibition of horse serum BuChE using […] as substrate at 50 uM preincubated for 15 mins followed by substrate addition by Ellman's method relative to control; details: not given
Sequence (P81908 whole entry): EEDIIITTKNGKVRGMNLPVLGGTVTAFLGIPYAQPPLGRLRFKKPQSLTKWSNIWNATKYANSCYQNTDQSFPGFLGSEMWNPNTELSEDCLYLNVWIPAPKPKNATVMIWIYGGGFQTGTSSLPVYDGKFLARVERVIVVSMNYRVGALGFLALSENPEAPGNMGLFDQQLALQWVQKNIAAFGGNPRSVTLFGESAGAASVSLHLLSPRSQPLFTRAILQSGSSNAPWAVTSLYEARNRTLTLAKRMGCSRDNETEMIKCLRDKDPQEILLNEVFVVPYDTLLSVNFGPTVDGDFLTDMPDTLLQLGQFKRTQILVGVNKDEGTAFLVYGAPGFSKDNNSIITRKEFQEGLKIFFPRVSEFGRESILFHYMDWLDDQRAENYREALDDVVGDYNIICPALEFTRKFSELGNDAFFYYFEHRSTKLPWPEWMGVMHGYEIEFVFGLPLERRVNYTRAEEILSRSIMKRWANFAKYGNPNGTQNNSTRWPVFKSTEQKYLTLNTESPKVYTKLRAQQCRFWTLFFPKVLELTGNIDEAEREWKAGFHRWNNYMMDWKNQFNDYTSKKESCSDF

Row | SMILES | inhibition [%]
8 | CCOC(=O)C1=C(C)Oc2nc3c(c(N)c2C1c1cc2ccc(OC)cc2nc1Cl)CCCC3 (stereo not given) | 50

test system: not listed separately; experiment: in vitro; details: human, SH-SY5Y cells
Description: Neurotoxicity in human SH-SY5Y cells assessed as cell viability at 5 uM after 24 hrs by XTT assay relative to control

Row | SMILES | viability at 24 h, 5 µM [%]
9 | CCOC(=O)C1=C(C)Oc2nc3c(c(N)c2C1c1cc2cccc(OC)c2nc1Cl)CCCC3 (stereo not given) | 100
10 | COc1ccc2cc(C3C4=C(CC(C)(C)CC4=O)Oc4nc5c(c(N)c43)CCCC5)c(Cl)nc2c1 (stereo not given) | 113
11 | COc1ccc2cc(C3C4=C(CC(C)(C)CC4=O)Oc4nc5c(c(N)c43)CCCCC5)c(Cl)nc2c1 (stereo not given) | 111
12 | CCOC(=O)C1=C(C)Oc2nc3c(c(N)c2C1c1cc2ccc(OC)cc2nc1Cl)CCCC3 (stereo not given) | 131
13 | COC(=O)C1=C(C)Oc2nc3c(c(N)c2C1c1cc2ccc(OC)cc2nc1Cl)CCC3 (stereo not given) | 114
14 | CCOC(=O)C1=C(C)Oc2nc3c(c(N)c2C1c1cc2ccc(OC)cc2nc1Cl)CCCCC3 (stereo not given) | 125

test system: not listed separately; experiment: in vitro; details: human, SH-SY5Y cells; remark: another data set of the same source
Description: Neurotoxicity in human SH-SY5Y cells assessed as cell viability at 0.1 uM after 24 hrs by XTT assay relative to control

Row | SMILES | viability at 24 h, 0.1 µM [%]
15 | CCOC(=O)C1=C(C)Oc2nc3c(c(N)c2C1c1cc2cccc(OC)c2nc1Cl)CCCC3 (stereo not given) | 107
16 | COc1ccc2cc(C3C4=C(CC(C)(C)CC4=O)Oc4nc5c(c(N)c43)CCCC5)c(Cl)nc2c1 (stereo not given) | 93.8
17 | COc1ccc2cc(C3C4=C(CC(C)(C)CC4=O)Oc4nc5c(c(N)c43)CCCCC5)c(Cl)nc2c1 (stereo not given) | 92.2
18 | CCOC(=O)C1=C(C)Oc2nc3c(c(N)c2C1c1cc2ccc(OC)cc2nc1Cl)CCCC3 (stereo not given) | 103
19 | COC(=O)C1=C(C)Oc2nc3c(c(N)c2C1c1cc2ccc(OC)cc2nc1Cl)CCC3 (stereo not given) | 104
20 | CCOC(=O)C1=C(C)Oc2nc3c(c(N)c2C1c1cc2ccc(OC)cc2nc1Cl)CCCCC3 (stereo not given) | 84.2

test system: HepG2; experiment: not given; details: not given

Row | SMILES | EC50 [µM]
21 | CCOC(=O)C1=C(C)Oc2nc3c(c(N)c2C1c1cc2cccc(OC)c2nc1Cl)CCCC3 (stereo not given) | 1080

test system: not listed separately; experiment: in vitro; details: human, SH-SY5Y cells; remark: another data set of the same source
Description: Neurotoxicity in human SH-SY5Y cells assessed as cell viability at 10 uM after 24 hrs by XTT assay relative to control

Row | SMILES | viability at 24 h, 10 µM [%]
22 | CCOC(=O)C1=C(C)Oc2nc3c(c(N)c2C1c1cc2cccc(OC)c2nc1Cl)CCCC3 (stereo not given) | 96.5
23 | COc1ccc2cc(C3C4=C(CC(C)(C)CC4=O)Oc4nc5c(c(N)c43)CCCC5)c(Cl)nc2c1 (stereo not given) | 103
24 | COc1ccc2cc(C3C4=C(CC(C)(C)CC4=O)Oc4nc5c(c(N)c43)CCCCC5)c(Cl)nc2c1 (stereo not given) | 97.3
25 | CCOC(=O)C1=C(C)Oc2nc3c(c(N)c2C1c1cc2ccc(OC)cc2nc1Cl)CCCC3 (stereo not given) | 125
26 | COC(=O)C1=C(C)Oc2nc3c(c(N)c2C1c1cc2ccc(OC)cc2nc1Cl)CCC3 (stereo not given) | 98
27 | CCOC(=O)C1=C(C)Oc2nc3c(c(N)c2C1c1cc2ccc(OC)cc2nc1Cl)CCCCC3 (stereo not given) | 106

test system: not listed separately; experiment: in vitro; details: human, SH-SY5Y cells; remark: another data set of the same source
Description: Neurotoxicity in human SH-SY5Y cells assessed as cell viability at 1 uM after 24 hrs by XTT assay relative to control

Row | SMILES | viability at 24 h, 1 µM [%]
28 | CCOC(=O)C1=C(C)Oc2nc3c(c(N)c2C1c1cc2cccc(OC)c2nc1Cl)CCCC3 (stereo not given) | 91.9
29 | COc1ccc2cc(C3C4=C(CC(C)(C)CC4=O)Oc4nc5c(c(N)c43)CCCC5)c(Cl)nc2c1 (stereo not given) | 95.6
30 | COc1ccc2cc(C3C4=C(CC(C)(C)CC4=O)Oc4nc5c(c(N)c43)CCCCC5)c(Cl)nc2c1 (stereo not given) | 97.3
31 | CCOC(=O)C1=C(C)Oc2nc3c(c(N)c2C1c1cc2ccc(OC)cc2nc1Cl)CCCC3 (stereo not given) | 130
32 | COC(=O)C1=C(C)Oc2nc3c(c(N)c2C1c1cc2ccc(OC)cc2nc1Cl)CCC3 (stereo not given) | 94.2
33 | CCOC(=O)C1=C(C)Oc2nc3c(c(N)c2C1c1cc2ccc(OC)cc2nc1Cl)CCCCC3 (stereo not given) | 99

biological target: Acetylcholinesterase (Electrophorus electricus, UniProt O42275); experiment: not given; details: not given
Sequence (O42275 whole entry): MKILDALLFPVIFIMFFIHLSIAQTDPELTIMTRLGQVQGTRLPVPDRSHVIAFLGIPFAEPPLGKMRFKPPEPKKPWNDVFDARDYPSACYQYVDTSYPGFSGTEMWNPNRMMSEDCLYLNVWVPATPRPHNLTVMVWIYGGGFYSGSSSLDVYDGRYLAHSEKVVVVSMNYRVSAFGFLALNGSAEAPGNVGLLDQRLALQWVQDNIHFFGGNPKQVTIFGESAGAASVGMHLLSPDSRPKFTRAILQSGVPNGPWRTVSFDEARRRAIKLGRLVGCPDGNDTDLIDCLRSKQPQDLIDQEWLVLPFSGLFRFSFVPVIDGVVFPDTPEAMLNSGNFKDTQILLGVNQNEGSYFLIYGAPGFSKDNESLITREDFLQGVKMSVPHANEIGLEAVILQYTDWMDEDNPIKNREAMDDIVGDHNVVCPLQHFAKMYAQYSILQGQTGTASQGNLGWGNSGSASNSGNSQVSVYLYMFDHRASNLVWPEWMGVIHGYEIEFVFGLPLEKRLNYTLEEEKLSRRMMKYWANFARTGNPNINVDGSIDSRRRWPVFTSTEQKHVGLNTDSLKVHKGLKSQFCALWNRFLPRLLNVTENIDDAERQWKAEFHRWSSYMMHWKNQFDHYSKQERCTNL

Row | SMILES | IC50 [µM]
34 | CCOC(=O)C1=C(C)Oc2nc3c(c(N)c2C1c1cc2cccc(OC)c2nc1Cl)CCCC3 (stereo not given) | 0.61
35 | COc1ccc2cc(C3C4=C(CC(C)(C)CC4=O)Oc4nc5c(c(N)c43)CCCC5)c(Cl)nc2c1 (stereo not given) | 14.8
36 | COc1ccc2cc(C3C4=C(CC(C)(C)CC4=O)Oc4nc5c(c(N)c43)CCCCC5)c(Cl)nc2c1 (stereo not given) | 2.81
37 | CCOC(=O)C1=C(C)Oc2nc3c(c(N)c2C1c1cc2ccc(OC)cc2nc1Cl)CCCC3 (stereo not given) | 1.52
38 | COC(=O)C1=C(C)Oc2nc3c(c(N)c2C1c1cc2ccc(OC)cc2nc1Cl)CCC3 (stereo not given) | 1.66
39 | CCOC(=O)C1=C(C)Oc2nc3c(c(N)c2C1c1cc2ccc(OC)cc2nc1Cl)CCCCC3 (stereo not given) | 9.8

test system: not listed separately; experiment: in vitro; details: human, HepG2 cells
Description: Hepatotoxicity in human HepG2 cells assessed as reduction in cell viability by MTT assay

Row | SMILES | EC50 [µM]
40 | COc1ccc2cc(C3C4=C(CC(C)(C)CC4=O)Oc4nc5c(c(N)c43)CCCC5)c(Cl)nc2c1 (stereo not given) | 922
41 | COc1ccc2cc(C3C4=C(CC(C)(C)CC4=O)Oc4nc5c(c(N)c43)CCCCC5)c(Cl)nc2c1 (stereo not given) | 330
42 | CCOC(=O)C1=C(C)Oc2nc3c(c(N)c2C1c1cc2ccc(OC)cc2nc1Cl)CCCC3 (stereo not given) | 942
43 | COC(=O)C1=C(C)Oc2nc3c(c(N)c2C1c1cc2ccc(OC)cc2nc1Cl)CCC3 (stereo not given) | 540
44 | CCOC(=O)C1=C(C)Oc2nc3c(c(N)c2C1c1cc2ccc(OC)cc2nc1Cl)CCCCC3 (stereo not given) | 656

test system: SH-SY5Y; experiment: cells; details: Homo sapiens, 24 h
Description: Neuroprotective activity against rotenone/oligomycin-A-induced cell death in human SH-SY5Y cells assessed as increase in cell viability after 24 hrs by XTT assay

Row | SMILES | EC50 [µM]
45 | CCOC(=O)C1=C(C)Oc2nc3c(c(N)c2C1c1cc2cccc(OC)c2nc1Cl)CCCC3 (stereo not given) | 1.95
46 | COc1ccc2cc(C3C4=C(CC(C)(C)CC4=O)Oc4nc5c(c(N)c43)CCCC5)c(Cl)nc2c1 (stereo not given) | 12.2
47 | COc1ccc2cc(C3C4=C(CC(C)(C)CC4=O)Oc4nc5c(c(N)c43)CCCCC5)c(Cl)nc2c1 (stereo not given) | 5.6
48 | CCOC(=O)C1=C(C)Oc2nc3c(c(N)c2C1c1cc2ccc(OC)cc2nc1Cl)CCCC3 (stereo not given) | 2.3
49 | COC(=O)C1=C(C)Oc2nc3c(c(N)c2C1c1cc2ccc(OC)cc2nc1Cl)CCC3 (stereo not given) | 11.8
50 | CCOC(=O)C1=C(C)Oc2nc3c(c(N)c2C1c1cc2ccc(OC)cc2nc1Cl)CCCCC3 (stereo not given) | 4.7

test system: not listed separately; experiment: in vitro; details: human, SH-SY5Y cells; remark: another data set of the same source
Description: Neurotoxicity in human SH-SY5Y cells assessed as cell viability at 25 uM after 24 hrs by XTT assay relative to control

Row | SMILES | viability at 24 h, 25 µM [%]
51 | CCOC(=O)C1=C(C)Oc2nc3c(c(N)c2C1c1cc2cccc(OC)c2nc1Cl)CCCC3 (stereo not given) | 100
52 | COc1ccc2cc(C3C4=C(CC(C)(C)CC4=O)Oc4nc5c(c(N)c43)CCCC5)c(Cl)nc2c1 (stereo not given) | 113
53 | COc1ccc2cc(C3C4=C(CC(C)(C)CC4=O)Oc4nc5c(c(N)c43)CCCCC5)c(Cl)nc2c1 (stereo not given) | 118
54 | CCOC(=O)C1=C(C)Oc2nc3c(c(N)c2C1c1cc2ccc(OC)cc2nc1Cl)CCCC3 (stereo not given) | 123
55 | COC(=O)C1=C(C)Oc2nc3c(c(N)c2C1c1cc2ccc(OC)cc2nc1Cl)CCC3 (stereo not given) | 118
56 | CCOC(=O)C1=C(C)Oc2nc3c(c(N)c2C1c1cc2ccc(OC)cc2nc1Cl)CCCCC3 (stereo not given) | 109

test system: SH-SY5Y; experiment: Neuroprotective activity against amyloid beta (1 to 40)-induced cell death in human SH-SY5Y cells assessed as increase in cell viability at 10 uM after 48 hrs by XTT assay; type: functional, cell-based; details: not given

Row | SMILES | Activity
57 | COc1ccc2cc(C3C4=C(CC(C)(C)CC4=O)Oc4nc5c(c(N)c43)CCCC5)c(Cl)nc2c1 (stereo not given) | Active
58 | COC(=O)C1=C(C)Oc2nc3c(c(N)c2C1c1cc2ccc(OC)cc2nc1Cl)CCC3 (stereo not given) | Active
59 | CCOC(=O)C1=C(C)Oc2nc3c(c(N)c2C1c1cc2ccc(OC)cc2nc1Cl)CCCCC3 (stereo not given) | Active

test system: not listed separately; experiment: in vitro; details: human, SH-SY5Y cells; remark: another data set of the same source
Description: Neurotoxicity in human SH-SY5Y cells assessed as cell viability at 50 uM after 24 hrs by XTT assay relative to control

Row | SMILES | viability at 24 h, 50 µM [%]
60 | CCOC(=O)C1=C(C)Oc2nc3c(c(N)c2C1c1cc2cccc(OC)c2nc1Cl)CCCC3 (stereo not given) | 99.5
61 | COc1ccc2cc(C3C4=C(CC(C)(C)CC4=O)Oc4nc5c(c(N)c43)CCCC5)c(Cl)nc2c1 (stereo not given) | 90.6
62 | COc1ccc2cc(C3C4=C(CC(C)(C)CC4=O)Oc4nc5c(c(N)c43)CCCCC5)c(Cl)nc2c1 (stereo not given) | 103
63 | CCOC(=O)C1=C(C)Oc2nc3c(c(N)c2C1c1cc2ccc(OC)cc2nc1Cl)CCCC3 (stereo not given) | 129
64 | COC(=O)C1=C(C)Oc2nc3c(c(N)c2C1c1cc2ccc(OC)cc2nc1Cl)CCC3 (stereo not given) | 93.2
65 | CCOC(=O)C1=C(C)Oc2nc3c(c(N)c2C1c1cc2ccc(OC)cc2nc1Cl)CCCCC3 (stereo not given) | 106

From ChEMBL document CHEMBL3822376, “Potent anticholinesterasic and neuroprotective pyranotacrines as inhibitors of beta-amyloid aggregation, oxidative stress and tau-phosphorylation for Alzheimer's disease” (Eur J Med Chem, 2016)
